The record followed here is PubChem BioAssay (NCI).

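A five-concentration, 48-hour dose response in 96-well plates underlies each endpoint, interpolated linearly between surrounding concentrations. The concentration for 50% growth inhibition is given as GI50. Definition used: TGI = concentration required for complete inhibition of growth.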 Some results are limits rather than exact numbers.

Among the test systems are 786-0 renal; A498 renal; A549 NSCLC; HCT-15 colon; HL-60(TB) leukemia; MCF7 breast; RXF 393 renal; SF-295 CNS; SNB-19 CNS; HCC-2998 colon.
Common to all, as to assay: NCI tumour cell line growth inhibition, 48 h

As to `Cc1ccc(-c2nc3cc(Cl)c(Cl)cc3nc2C#N)cc1`, the GI50 in the assay with 786-0 renal is 47.5 µM; with A498 renal, > 100 µM; in the assay with A549 NSCLC it was > 100 µM; in the assay with HCT-15 colon it was > 100 µM; in the assay on HL-60(TB) leukemia, > 100 µM; with MCF7 breast it was > 100 µM. The GI50 in the assay on RXF 393 renal, with SF-295 CNS and in the assay on SNB-19 CNS was > 100 µM in each case. Besides, the TGI with 786-0 renal, in the assay with A498 renal, in the assay on A549 NSCLC, in the assay on HCT-15 colon, in the assay on HL-60(TB) leukemia and with MCF7 breast was > 100 µM throughout. In addition, the TGI in the assay on RXF 393 renal, with SF-295 CNS and in the assay with SNB-19 CNS was > 100 µM in each case.
Regarding `CCN(CC)c1ccc(C2NC(=O)c3ccccc3N2)cc1` (configuration not stated), the TGI was > 41.2 µM in the assay with 786-0 renal; > 31.6 µM in the assay on A498 renal; > 100 µM in the assay with A549 NSCLC; 5.79 µM in the assay with HCC-2998 colon; > 100 µM in the assay on HCT-15 colon; > 100 µM with MCF7 breast. Besides, the TGI with RXF 393 renal was > 100 µM; in the assay on SF-295 CNS, > 86.3 µM; in the assay with SNB-19 CNS, > 100 µM.
For the compound `CC[C@]1(O)CC2CN(CCc3c([nH]c4ccccc34)[C@@](C(=O)OC)(c3cc4c(cc3OC)N(C=O)[C@H]3[C@@](O)(C(=O)OC)[C@H](OC(C)=O)[C@]5(CC)C=CCN6CC[C@]43[C@@H]65)C2)C1` (some centres not stated), the GI50 with 786-0 renal was 0.014 µM; in the assay on A498 renal, 0.0123 µM; in the assay with A549 NSCLC it was 0.0172 µM; with HCC-2998 colon, < 0.005 µM; with MCF7 breast, < 0.005 µM; in the assay on RXF 393 renal, < 0.005 µM. The GI50 in the assay on SF-295 CNS and in the assay with SNB-19 CNS was < 0.005 µM each time. Further, the TGI in the assay with 786-0 renal is > 22.5 µM; with A549 NSCLC, > 50 µM; in the assay on HCT-15 colon, > 50 µM; in the assay on MCF7 breast it was > 50 µM; in the assay with RXF 393 renal, > 50 µM; in the assay with SF-295 CNS, 1.35 µM. Further, the TGI in the assay on SNB-19 CNS is > 50 µM.
`CCN(CC)c1ccc2nc3c4ccccc4c(=O)cc-3n(-c3ccccc3)c2c1`: the GI50 in the assay on 786-0 renal is 2.66 µM; in the assay on A498 renal, 0.653 µM; in the assay on A549 NSCLC it was 1.45 µM; with HCT-15 colon, 2.1 µM; in the assay on HL-60(TB) leukemia it was 0.273 µM; in the assay on MCF7 breast, 0.53 µM. The GI50 in the assay on RXF 393 renal is 1.94 µM; in the assay with SF-295 CNS it was 1.29 µM; with SNB-19 CNS, 3.32 µM. Further, the TGI in the assay with 786-0 renal stood at 8.86 µM; in the assay with A498 renal, 4.59 µM; with A549 NSCLC, 3.96 µM; in the assay on HCT-15 colon it was 49.3 µM; in the assay with HL-60(TB) leukemia, 0.821 µM; in the assay with MCF7 breast, 7.83 µM. Moreover, the TGI is 5.83 µM in the assay with RXF 393 renal, 3.28 µM with SF-295 CNS and > 100 µM in the assay with SNB-19 CNS.
Regarding `CCCCCCCCCC(CCCC(O)CC(=O)O)OC1OC(COC2OC(C)C(OC(C)=O)C(O)C2O)C(O)C(O)C1OC1OC(CO)C(O)C(O)C1OC1OC(C)C(OC(=O)CC(C)C)C(O)C1O` (configuration not stated), the GI50 in the assay with 786-0 renal, in the assay on A549 NSCLC, in the assay on HCC-2998 colon, in the assay with HCT-15 colon, in the assay with HL-60(TB) leukemia and with MCF7 breast was > 35 µM each time. In addition, the GI50 in the assay with RXF 393 renal, in the assay with SF-295 CNS and in the assay with SNB-19 CNS was > 35 µM each time. Also, the TGI in the assay with 786-0 renal, in the assay on A549 NSCLC, in the assay on HCC-2998 colon, with HCT-15 colon, in the assay with HL-60(TB) leukemia and in the assay with MCF7 breast was > 35 µM each time. Further, the TGI in the assay with RXF 393 renal, with SF-295 CNS and in the assay on SNB-19 CNS was > 35 µM each time.
In the case of `O=CNc1ccc(S(=O)(=O)c2ccc(NC=O)cc2)cc1`, the TGI with 786-0 renal, with A549 NSCLC, in the assay on HCC-2998 colon, with HCT-15 colon, in the assay with HL-60(TB) leukemia and with MCF7 breast was > 100 µM throughout. For the same compound, the TGI with SF-295 CNS and in the assay with SNB-19 CNS was > 100 µM throughout.
`COc1ccc2nc(-c3ccccc3)cc(Nc3cccc(C(C)=O)c3)c2c1`: the GI50 with 786-0 renal is 2.66 µM; in the assay on A498 renal it was 2.42 µM; with A549 NSCLC, 15.3 µM; in the assay with HCC-2998 colon it was 13.2 µM; in the assay on HCT-15 colon, 4.93 µM; with MCF7 breast it was 7.95 µM. The GI50 in the assay on SF-295 CNS was 12.7 µM; with SNB-19 CNS, 17.2 µM. Also, the TGI was found to be 9.64 µM with 786-0 renal; 15 µM in the assay on A498 renal; 55.6 µM in the assay with A549 NSCLC; 45.1 µM in the assay on HCC-2998 colon; 22.1 µM in the assay on HCT-15 colon; 33.2 µM in the assay with MCF7 breast. Further, the TGI is 31.6 µM with SF-295 CNS and > 100 µM with SNB-19 CNS.
`COc1ccc(Cl)cc1Nc1nc(C(F)(F)F)ccc1C(=O)N/N=C/c1cccnc1`: the GI50 with 786-0 renal was 2.63 µM; in the assay on A498 renal, 1.23 µM; in the assay with A549 NSCLC, 5.49 µM; with HCC-2998 colon, 1.99 µM; in the assay on HCT-15 colon, 1.42 µM; in the assay on HL-60(TB) leukemia, 1.95 µM. Further, the figures for the GI50 in the assay on MCF7 breast, in the assay on SF-295 CNS and with SNB-19 CNS were 3.51 µM, 1.28 µM and 3.78 µM, respectively. The TGI in the assay on 786-0 renal, in the assay on A498 renal, with A549 NSCLC, in the assay on HCC-2998 colon, in the assay on HCT-15 colon and in the assay with HL-60(TB) leukemia was > 100 µM throughout. In addition, the TGI in the assay with MCF7 breast is > 100 µM; in the assay with SF-295 CNS, 9.52 µM; in the assay with SNB-19 CNS it was > 100 µM.
For the compound `O=C(O)c1c(Cl)c(Cl)c(Cl)c(Cl)c1C(=O)Nc1ccc2cn[nH]c2c1`, the TGI in the assay on 786-0 renal, with A498 renal, in the assay with A549 NSCLC, in the assay on HCT-15 colon, with MCF7 breast and in the assay on RXF 393 renal was > 100 µM each time. Moreover, the TGI in the assay with SF-295 CNS and with SNB-19 CNS was > 100 µM each time.
Regarding `C/C(=N\n1c(O)c(C#N)cc(C#N)c1=O)c1ccncc1`, the GI50 in the assay on 786-0 renal, with A549 NSCLC, in the assay with HCC-2998 colon, with HCT-15 colon, in the assay on MCF7 breast and in the assay with SF-295 CNS was > 100 µM each time. Moreover, in the assay on SNB-19 CNS, the GI50 is > 100 µM. The TGI with 786-0 renal, with A549 NSCLC, with HCC-2998 colon, in the assay on HCT-15 colon, with MCF7 breast and in the assay on SF-295 CNS was > 100 µM throughout. Moreover, the TGI with SNB-19 CNS is > 100 µM.
